For one data set, the system named is H358. The experiment in a line: Inhibition assay on tumor cell proliferation (CellTiter-Glo), H358. The data set is classed as cell-based, Human. As to conditions: Homo sapiens, NCI-H358; H358 (wild-type EGFR), 72 hours, 10% bovine serum. The method, then: By using a CellTiter-Glo luminescence cell viability test kit (Promega, # G7572), the content of adenosine triphosphate (ATP) was determined to assess the cell viability.
Human colon cancer cell line LOVO and human non-small-cell lung cancer H358 express wild-type EGFR. Human non-small-cell lung cancer cell line HCC827 carries deletion mutation in exon 19 (ex19del). Those cell lines are purchased from Shanghai Fudan IBS Cell Resource Center and American Tissue Culture Collection (ATCC).
The assay procedure is as follows. The cells in a cell culture plate were digested with a pancreatic enzyme, re-suspended in a DPBS culture medium, and had the cell density counted by Scepter automated cytometer (Millipore # PHCC00000). The cells were diluted to a solution of 44,000 cells per ml. The cell solution with adjusted density was added to the cell assay plate at 90 microliters per well. The plate was placed in an incubator with 5% CO2 at 37° C. for 24 hours of incubation, and then added with different concentrations of subject compounds. The cells were incubated for 72 hours with the compounds in presence of 10% bovine serum. The content of ATP was determined by a CellTiter-Glo® Luminescent Cell Viability Assay kit (see the manufacturer's instruction for details) to evaluate cell-growth inhibition.
Briefly, 30 μl of CellTiter-Glo® reagent was added to each well, and then shaken for 10 minutes to induce cell lysis. The fluorescent signal was detected and recorded by Fluoroskan Ascent FL (Thermo). The max signal value was obtained from the cells treated by dimethyl sulfoxide for 72 hours. The min signal value was obtained from the medium alone (the number of the cells was 0). Inhibitory rate %=(max signal value−compound signal value)/(max signal value−min signal value)×100. The data was processed by GraphPad Prism V5.0 software (GraphPad Software, San Diego, Calif.). Sigmoidal dose-response curve fitting was performed to calculate the IC50 value.
On the technique in general: Cellular ATP, detected with luciferase, serves as a proxy for viable cell number.

In the next data set the test system is H1975. The data set is described as follows: Inhibition assay on tumor cell proliferation (CellTiter-Glo), H1975. Format: cell-based, Human. As to conditions: Homo sapiens, NCI-H1975; H1975 (L858R and T790M EGFR double mutation), 72 hours, 10% bovine serum.
The target of a further data set is T1, EGFR T790M/L858R (Homo sapiens, UniProt P00533, L858R/T790M).
T1 construct: purchased Invitrogen PR8911A
T1 sequence (P00533 25-1210 T790M/L858R): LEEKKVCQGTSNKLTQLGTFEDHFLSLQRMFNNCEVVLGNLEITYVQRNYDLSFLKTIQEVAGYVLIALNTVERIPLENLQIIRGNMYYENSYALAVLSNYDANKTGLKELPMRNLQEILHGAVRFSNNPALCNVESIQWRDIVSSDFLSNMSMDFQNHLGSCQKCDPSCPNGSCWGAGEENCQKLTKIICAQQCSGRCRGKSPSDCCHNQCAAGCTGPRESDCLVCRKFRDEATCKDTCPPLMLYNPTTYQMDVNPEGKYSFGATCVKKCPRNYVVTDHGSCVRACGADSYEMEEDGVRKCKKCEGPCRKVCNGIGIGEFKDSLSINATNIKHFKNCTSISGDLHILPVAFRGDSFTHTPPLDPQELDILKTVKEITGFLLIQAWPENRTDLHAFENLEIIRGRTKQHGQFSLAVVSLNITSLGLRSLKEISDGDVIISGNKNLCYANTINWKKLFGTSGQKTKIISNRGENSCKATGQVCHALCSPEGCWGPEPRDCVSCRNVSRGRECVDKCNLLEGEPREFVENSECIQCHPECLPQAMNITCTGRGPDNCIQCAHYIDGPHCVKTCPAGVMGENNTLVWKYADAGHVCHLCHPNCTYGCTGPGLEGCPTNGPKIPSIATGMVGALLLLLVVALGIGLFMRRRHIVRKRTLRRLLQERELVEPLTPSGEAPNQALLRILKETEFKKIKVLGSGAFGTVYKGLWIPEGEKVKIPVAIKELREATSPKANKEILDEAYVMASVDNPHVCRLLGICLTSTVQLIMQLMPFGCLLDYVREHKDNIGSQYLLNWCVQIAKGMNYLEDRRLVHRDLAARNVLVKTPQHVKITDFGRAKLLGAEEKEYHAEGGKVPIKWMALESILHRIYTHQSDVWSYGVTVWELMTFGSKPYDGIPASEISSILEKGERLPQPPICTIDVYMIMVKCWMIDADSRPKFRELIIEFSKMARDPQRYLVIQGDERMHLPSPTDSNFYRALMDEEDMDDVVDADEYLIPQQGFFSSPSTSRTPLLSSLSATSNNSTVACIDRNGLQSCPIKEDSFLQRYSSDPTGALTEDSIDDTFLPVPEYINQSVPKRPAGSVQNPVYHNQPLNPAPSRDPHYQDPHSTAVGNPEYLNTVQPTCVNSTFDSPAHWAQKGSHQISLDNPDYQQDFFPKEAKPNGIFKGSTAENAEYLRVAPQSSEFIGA
The data set is described as follows: Mutant EGFR T790M/L858R activity inhibition assay (Caliper mobility shift). The data set is classed as biochemical. Conditions: read-out: enzyme activity inhibition (IC50) EGFR T790M/L858R. Here is the method: The assay procedure is as follows. […] 5 μl of the compound dissolved in 10% DMSO at a concentration of 5-fold of the final reaction concentration was added to a 384 well plate. 5 μl of 10% DMSO was used in a no-compound control well, while 5 μl of a kinase buffer was used in a no-enzyme activity control well. […] The conversion rate was read on Caliper EZ Reader II (Caliper Life Sciences). The conversion rate was then converted to inhibitory rate.
As used herein, “max” refers to the conversion rate of the DMSO no-compound control well, and “min” refers to the conversion rate of the no-enzyme activity control well. A curve was obtained by plotting the inhibitory rate as a function of the compound concentration. The XLFit excel add-in version 4.3.1 software was used to fit the curve and calculate the IC50. Inhibitory rate %=(max−conversion rate)/(max−min)×100.

IC50 and melting point data for 17 molecules are collected here from US11267802B2 (BEBETTER MED INC., priority 2015, dated 2022).

The melting point is the temperature, or range, at which the solid turns liquid.

Where only a bound is given, the exact number is not on record here.

Consider `C=CC(=O)Nc1cc(Nc2nccc(-n3c(=O)n(C)c4ccccc43)n2)c(C(C)C)cc1N(C)CCN(C)C` [Compound 132, N-(2-((2-(dimethylamino)ethyl)(methyl)amino)-4-isopropyl-5-((4-(3-methyl-2-oxo-2,3-dihydro-1H-benzo[d]imidazol-1-yl)pyrimidin-2-yl)amino)phenyl)acrylamide], for which the figures for the IC50 in the data set on H358, in the data set on H1975 and on EGFR T790M/L858R were > 1 µM, < 0.01 µM and 0.001 to 0.01 µM, respectively.
The molecule `CCC#CC(=O)Nc1cc(Nc2nccc(-n3ccc4ccccc43)n2)c(OC)cc1N(C)CCN(C)C` [Compound 74, N-(5-((4-(1H-indol-1-yl)pyrimidin-2-yl)amino)-2-((2-(dimethylamino)ethyl)(methyl)amino)-4-methoxyphenyl)pent-2-ynamide] came in with a melting point of 149.4 to 151.7 °C. Further, the IC50 at EGFR T790M/L858R lay in the range of 0.001 to 0.01 µM.
With `C/C=C/C(=O)Nc1cc(Nc2nccc(-n3ccc4ccccc43)n2)c(OC)cc1N(C)CCN(C)C` [Compound 66, (E)-N-(5-((4-(1H-indol-1-yl)pyrimidin-2-yl)amino)-2-((2-(dimethylamino)ethyl)(methyl)amino)-4-methoxyphenyl)but-2-enamide], the melting point lay within 150.2 to 152.8 °C. Also, the IC50 at EGFR T790M/L858R fell in the range of 0.01 to 0.05 µM.
Regarding `C=CC(=O)Nc1cc(Nc2nccc(-n3c(=O)n(CC4CC4)c4ccccc43)n2)c(OC)cc1N(C)CCN(C)C` [Compound 63, N-(5-((4-(3-(cyclopropylmethyl)-2-oxo-2,3-dihydro-1H-benzo[d]imidazol-1-yl)pyrimidin-2-yl)amino)-2-((2-(dimethylamino)ethyl)(methyl)amino)-4-methoxyphenyl)acrylamide], the melting point was in the range of 68 to 72 °C. For the same molecule, the IC50 with H358 was > 1 µM. For the same molecule, the IC50 in the data set on H1975 is < 0.01 µM. Besides, the IC50 on EGFR T790M/L858R was < 0.001 µM.
Molecule `C=CC(=O)Nc1cc(Nc2nccc(-n3ccc4ccccc43)n2)c(OC)cc1N(C)CCN1CCCCC1` [Compound 81, N-(5-(4-(1H-indol-1-yl)pyrimidin-2-ylamino)-4-methoxy-2-(methyl(2-(piperidin-1-yl)ethyl)amino)phenyl)acrylamide] registered a melting point of 131 to 136 °C. In addition, the IC50 on EGFR T790M/L858R lay in the range of 0.001 to 0.01 µM.
Molecule `C=CC(=O)Nc1cc(Nc2nccc(-n3c(=O)n(C4CC4)c4cc(OC)ccc43)n2)c(OC)cc1N(C)CCN(C)C` [Compound 102, N-(5-((4-(3-cyclopropyl-5-methoxy-2-oxo-2,3-dihydro-1H-benzo[d]imidazol-1-yl)pyrimidin-2-yl)amino)-2-((2-(dimethylamino)ethyl)(methyl)amino)-4-methoxyphenyl)acrylamide] had a melting point of 144 to 146 °C. The IC50 with H358 was 0.1 to 1 µM. For the same molecule, in the data set on H1975, the IC50 is < 0.01 µM. In addition, the IC50 at EGFR T790M/L858R was < 0.001 µM.
In turn, `C=CC(=O)Nc1cc(Nc2nccc(-n3ccc4ccccc43)n2)c(OC)cc1N1CCN(C)CC1` [Compound 84, N-(5-((4-(1H-indol-1-yl)pyrimidin-2-yl)amino)-4-methoxy-2-(4-methylpiperazin-1-yl)phenyl)acrylamide] displayed a melting point of 204 to 205 °C. The IC50 at EGFR T790M/L858R was 0.01 to 0.05 µM.
Take `C=CC(=O)Nc1cc(Nc2nccc(-n3c(=O)n(C)c4ccccc43)n2)ccc1N(C)CCN(C)C` [Compound 125, N-(2-((2-(dimethylamino)ethyl)(methyl)amino)-5-((4-(3-methyl-2-oxo-2,3-dihydro-1H-benzo[d]imidazol-1-yl)pyrimidin-2-yl)amino)phenyl)acrylamide]: the melting point was in the range of 190 to 193 °C. In the data set on H358, this molecule came in with an IC50 of 0.1 to 1 µM. Moreover, in the data set with H1975, the IC50 is < 0.01 µM. At EGFR T790M/L858R, the IC50 is < 0.001 µM.
The matching figures for `C=CC(=O)Nc1cc(Nc2nccc(-n3c(=O)n(C(C)C)c4ccccc43)n2)ccc1N(C)CCN(C)C` [Compound 128, N-(2-((2-(dimethylamino)ethyl)(methyl)amino)-5-((4-(3-isopropyl-2-oxo-2,3-dihydro-1H-benzo[d]imidazol-1-yl)pyrimidin-2-yl)amino)phenyl)acrylamide]: 85 to 90 °C, 0.1 to 1 µM, < 0.01 µM and < 0.001 µM.
On to `C=C(C)C(=O)Nc1cc(Nc2nccc(-n3ccc4ccccc43)n2)c(OC)cc1N(C)CCN(C)C` [Compound 68, N-(5-((4-(1H-indol-1-yl)pyrimidin-2-yl)amino)-2-((2-(dimethylamino)ethyl)(methyl)amino)-4-methoxyphenyl)methacryl amide], for which the melting point lay in the range of 145.7 to 147.1 °C. Further, the IC50 at EGFR T790M/L858R lay within 0.01 to 0.05 µM.
Molecule `C=CC(=O)Nc1cc(Nc2ncc(NC)c(-n3ccc4ccccc43)n2)c(OC)cc1N(C)CCN(C)C` [Compound 11, N-(5-(4-(1H-indol-1-yl)-5-(methylamino)pyrimidin-2-ylamino)-2-((2-(dimethylamino)ethyl)(methyl)amino)-4-methoxyphenyl)acrylamide] had a melting point of 154 to 156 °C. Further, the IC50 on EGFR T790M/L858R is 0.001 to 0.01 µM.
`CC/C=C/C(=O)Nc1cc(Nc2nccc(-n3ccc4ccccc43)n2)c(OC)cc1N(C)CCN(C)C` [Compound 67, (E)-N-(5-((4-(1H-indol-1-yl)pyrimidin-2-yl)amino)-2-((2-(dimethylamino)ethyl)(methyl)amino)-4-methoxyphenyl)pent-2-enamide] yielded a melting point of 124.3 to 126.2 °C. The IC50 on EGFR T790M/L858R lay in the range of 0.05 to 0.1 µM.
Take `COC/C=C/C(=O)Nc1cc(Nc2nccc(-n3ccc4ccccc43)n2)c(OC)cc1N(C)CCN(C)C` [Compound 71]: the IC50 on EGFR T790M/L858R was 0.001 to 0.01 µM.
As to `C=CC(=O)Nc1cc(Nc2nccc(-n3c(=O)n(CC4CC4)c4cc(F)ccc43)n2)c(OC)cc1N(C)CCN(C)C` [Compound 105, N-(5-(4-(3-(cyclopropylmethyl)-5-fluoro-2-oxo-2,3-dihydro-1H-benzo[d]imidazol-1-yl)pyrimidin-2-ylamino)-2-((2-(dimethylamino)ethyl)(methyl)amino)-4-methoxyphenyl)acrylamide], the values for the IC50 in the data set on H358, with H1975 and on EGFR T790M/L858R were 0.1 to 1 µM, < 0.01 µM and < 0.001 µM, respectively.
With `C=CC(=O)Nc1cc(Nc2ncc(OC)c(-n3c(=O)n(C(C)C)c4ccccc43)n2)c(OC)cc1N(C)CCN(C)C` [Compound 133, N-(2-((2-(dimethylamino)ethyl) (methyl)amino)-5-((4-(3-isopropyl-2-oxo-2,3-dihydro-1H-benzo[d]imidazol-1-yl)-5-methoxypyrimidin-2-yl)amino)-4-methoxyphenyl)acrylamide], the melting point fell in the range of 92 to 95 °C. In the data set with H358, the IC50 is > 1 µM. Moreover, the IC50 with H1975 is < 0.01 µM. Besides, the IC50 at EGFR T790M/L858R was in the range of 0.001 to 0.01 µM.
Regarding `C=CC(=O)Nc1cc(Nc2nccc(-n3c(=O)n(C)c4ccccc43)n2)c(OCCOC)cc1N(C)CCN(C)C` [Compound 120, N-{2-[(2-dimethylamino-ethyl)-methyl-amino]-4-(2-methoxy-ethoxy)-5-[4-(3-methyl-2-oxo-2,3-dihydro-benzoimidazol-1-yl)-pyrimidin-2-ylamino]-phenyl}-acrylamide], the melting point lay within 71 to 78 °C. Besides, the IC50 at EGFR T790M/L858R lay in the range of 0.001 to 0.01 µM.
Consider `C=CC(=O)Nc1cc(Nc2nccc(-n3ccc4ccccc43)n2)c(OC)cc1N(C)CCN1CCOCC1` [Compound 82, N-{5-(4-indol-1-yl-pyrimidin-2-ylamino)-4-methoxy-2-[methyl-(2-morpholin-4-yl-ethyl)-amino]-phenyl}-acryl amide], for which the figures for the IC50 with H358, in the data set with H1975 and at EGFR T790M/L858R were > 1 µM, 0.05 to 0.1 µM and 0.001 to 0.01 µM, respectively.
